The values that follow come from patent US20170022171A1, “2,5-DISUBSTITUTED CYCLOPENTANECARBOXYLIC ACIDS AND THEIR USE” (Bayer Pharma Aktiengesellschaft, priority 2014, published 2017).

Bounds are passed on as bounds.

Format in all cases: biochemical
Experiment [1] has as its target T1, human macrophage elastase (HME/hMMP-12) (Homo sapiens, UniProt P39900).
T1 construct: 0.5 nM HME; purchased R&D Systems 917-MP
Put plainly: In vitro HME inhibition test (standard or high-sensitivity). To be noted: in some cases mean values. A digest of the protocol:
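Fluorogenic assay: 0.5 nM autoactivated HME with 5 µM Mca-Pro-Leu-Gly-Leu-Glu-Glu-Ala-Dap(Dnp)-NH2 in HEPES pH 7.4 buffer (NaCl, CaCl2, ZnCl2, EDTA, Brij), 2 h at 37 °C; ex 323/em 393 nm. IC50 from fluorescence versus concentration. High-sensitivity format: ~0.05 nM enzyme, ~16 h incubation.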

For experiment [2], the target named is T2, MMP-10 (Homo sapiens, UniProt P09238).
T2 construct: purchased R&D Systems 910-MP
T2 sequence (P09238 99-476): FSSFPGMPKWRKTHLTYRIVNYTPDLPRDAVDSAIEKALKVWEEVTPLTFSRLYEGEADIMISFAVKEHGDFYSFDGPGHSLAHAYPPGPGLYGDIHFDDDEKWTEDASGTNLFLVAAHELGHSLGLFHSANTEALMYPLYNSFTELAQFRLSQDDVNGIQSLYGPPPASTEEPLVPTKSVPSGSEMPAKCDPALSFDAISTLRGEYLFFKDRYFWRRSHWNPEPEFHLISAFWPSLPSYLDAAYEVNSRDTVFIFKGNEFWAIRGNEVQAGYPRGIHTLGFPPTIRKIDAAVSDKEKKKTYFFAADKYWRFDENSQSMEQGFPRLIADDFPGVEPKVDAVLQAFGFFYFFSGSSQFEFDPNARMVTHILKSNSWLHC
Briefly: In vitro MMP-10 inhibition test. The text has this: (§1) The MMP-mediated amidolytic cleavage of a suitable peptide substrate leads to an increase in fluorescent light here too. The signal intensity of the fluorescent light is directly proportional to the enzyme activity. The active concentration of a test compound at which half the enzyme is inhibited (50% signal intensity of the fluorescent light) is reported as the IC50 value.
(§2) Recombinant MMP-10 (from R&D Systems, 910-MP) is chemically activated in accordance with the manufacturer's instructions using APMA. 1 μl of the test compound to be analysed (as a solution in DMSO, suitable concentrations, for example, 1 nM to 30 μM) is pipetted into 24 μl of activated enzyme (final concentration, for example, 2 nM) in reaction buffer (50 mM Tris/HCl pH 7.5, 10 mM CaCl2, 150 mM NaCl, 0.05% Brij®-35) in a white 384-hole microtiter plate (MTP). The enzymatic reaction is started by adding the intramolecularly quenched Mca-Arg-Pro-Lys-Pro-Val-Glu-Nval-Trp-Arg-Lys(Dnp)-NH2 substrate (final concentration, for example, 10 μM; R&D Systems, ES-002), so as to result in a total test volume of 50 μl. The course of the MMP-10 reaction is measured by measuring the fluorescence intensity (excitation 320 nm, emission 410 nm) over a suitable period of time (for example over 120 min at a temperature of 32° C.).

Experiment [3] has as its target T3, MMP-14 (Homo sapiens, UniProt P50281).
T3 construct: purchased R&D Systems 918-MP
Briefly: In vitro MMP-14 inhibition test.
Description: as §1
Recombinant MMP-14 (from R&D Systems, 918-MP) is enzymatically activated in accordance with the manufacturer's instructions using recombinant furin (from R&D Systems, 1503-SE). 1 μl of the test compound to be analysed (as a solution in DMSO, suitable concentrations e.g. 1 nM to 30 μM) is pipetted into 24 μl of activated enzyme (final concentration e.g. 0.5 nM) in reaction buffer (50 mM Tris/HCl pH 7.5, 10 mM CaCl2, 150 mM NaCl, 0.05% Brij®-35) in a white 384-hole microtiter plate (MTP). The enzymatic reaction is started by adding the intramolecularly quenched Mca-Lys-Pro-Leu-Gly-Leu-Dpa(Dnp)-Ala-Arg-NH2 substrate (final concentration, for example, 5 μM; R&D Systems, ES-010), so as to result in a total test volume of 50 The course of the MMP-14 reaction is measured by measuring the fluorescence intensity (excitation 320 nm, emission 410 nm) over a suitable period of time (for example over 120 min at a temperature of 32° C.).

The target in experiment [4] is T4, MMP-1 (Homo sapiens, UniProt P03956).
T4 construct: purchased R&D Systems 901-MP
T4 sequence (P03956 100-469): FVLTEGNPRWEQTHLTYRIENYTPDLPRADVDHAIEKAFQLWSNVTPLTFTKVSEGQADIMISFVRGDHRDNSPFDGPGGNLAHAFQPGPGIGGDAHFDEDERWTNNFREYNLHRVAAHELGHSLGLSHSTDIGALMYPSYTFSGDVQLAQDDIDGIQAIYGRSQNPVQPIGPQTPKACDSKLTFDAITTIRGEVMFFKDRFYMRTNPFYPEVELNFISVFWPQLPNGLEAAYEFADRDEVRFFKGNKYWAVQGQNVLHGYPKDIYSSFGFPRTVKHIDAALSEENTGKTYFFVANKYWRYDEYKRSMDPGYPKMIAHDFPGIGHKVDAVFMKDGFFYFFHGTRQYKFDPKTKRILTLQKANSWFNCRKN
Put plainly: In vitro MMP-1 inhibition test.
Description: as §1
as §2, with “MMP-1” for “MMP-10”, “901-MP)” for “910-MP)”, “Mca-Pro-Leu-Gly-Leu-Dpa(Dnp)-Ala-Arg-NH2” for “Mca-Arg-Pro-Lys-Pro-Val-Glu-Nval-Trp-Arg-Lys(Dnp)-NH2”, “ES-001),” for “ES-002),”

T1 sequence (P39900 106-470): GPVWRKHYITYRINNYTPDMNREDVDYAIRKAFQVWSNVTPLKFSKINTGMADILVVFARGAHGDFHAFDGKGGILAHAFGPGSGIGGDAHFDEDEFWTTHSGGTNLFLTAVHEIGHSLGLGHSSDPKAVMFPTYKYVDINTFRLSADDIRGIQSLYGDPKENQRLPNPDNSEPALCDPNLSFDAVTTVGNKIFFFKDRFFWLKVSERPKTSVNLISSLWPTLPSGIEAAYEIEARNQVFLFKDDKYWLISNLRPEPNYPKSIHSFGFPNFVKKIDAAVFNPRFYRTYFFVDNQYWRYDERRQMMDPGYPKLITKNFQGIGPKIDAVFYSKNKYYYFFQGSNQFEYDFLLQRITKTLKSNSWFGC

With `Cc1cccc(COc2ccc(C(=O)[C@@H]3CC[C@H](Cn4nnc5ccc(C(F)(F)F)cc5c4=O)[C@H]3C(=O)O)cc2)c1` (single isomer, unassigned) [Example 16, (+)-(1RS,2RS,5SR)-2-{4-[(3-Methylbenzyl)oxy]benzoyl}-5-{[4-oxo-6-(trifluoromethyl)-1,2,3-benzotriazin-3(4H)-yl]methyl}cyclopentanecarboxylic acid], the IC50 stood at 0.064 nM in experiment [1], 37 nM in experiment [2], 320 nM in experiment [3] and 7100 nM in experiment [4].
Consider `Cc1ccc2nnn(C[C@H]3CC[C@@H](C(=O)c4ccc(OCC5CCCCC5)cc4)[C@@H]3C(=O)O)c(=O)c2c1` (single isomer, unassigned) [Example 117, (+)-(1RS,2RS,5SR)-2-[4-(Cyclohexylmethoxy)benzoyl]-5-[(6-methyl-4-oxo-1,2,3-benzotriazin-3(4H)-yl)methyl]cyclopentanecarboxylic acid], for which the IC50 in experiment [1] is 0.014 nM; in experiment [2], 26 nM; in experiment [3], 88 nM; in experiment [4] it was 4400 nM.
The like results for `O=C(O)[C@H]1[C@H](Cn2nnc3ccc(C(F)(F)F)cc3c2=O)CC[C@@H]1C(=O)c1ccc(OCc2ccccc2)cc1` (racemic) [Example 11, (+/−)-(1RS,2RS,5SR)-2-[4-(Benzyloxy)benzoyl]-5-{[4-oxo-6-(trifluoromethyl)-1,2,3-benzotriazin-3(4H)-yl]methyl}cyclopentanecarboxylic acid] were, in that order, 0.014 nM, 16 nM, 150 nM and 3800 nM.
Take `Cc1ccc2nnn(C[C@@H]3CC[C@H](C(=O)c4ccc(OCc5cccc(OC(F)(F)F)c5)cc4)[C@H]3C(=O)O)c(=O)c2c1` (racemic) [Example 109, (+/−)-(1RS,2SR,5RS)-2-[(6-Methyl-4-oxo-1,2,3-benzotriazin-3(4H)-yl)methyl]-5-(4-{[3-(trifluoromethoxy)benzyl]oxy}benzoyl)cyclopentanecarboxylic acid]: the IC50 in experiment [1] is 0.14 nM; in experiment [2] it was 100 nM; in experiment [3], 670 nM; in experiment [4], above 40000 nM.
On to `O=C(O)[C@H]1[C@H](Cn2nnc3ccc(C(F)(F)F)cc3c2=O)CC[C@@H]1C(=O)c1ccc(OCc2cccc(C(F)(F)F)c2)cc1` (racemic) [Example 18, (+/−)-(1RS,2SR,5RS)-2-{[4-Oxo-6-(trifluoromethyl)-1,2,3-benzotriazin-3(4H)-yl]methyl}-5-(4-{[3-(trifluoromethyl)benzyl]oxy}benzoyl)cyclopentanecarboxylic acid], for which the concentration for half-maximal inhibition (IC50) in experiment [1] was 0.11 nM; in experiment [2], 200 nM; in experiment [3] it was 1000 nM; in experiment [4] it was above 40000 nM.
As to `Cc1ccc2nnn(C[C@@H]3CC[C@H](C(=O)c4ccc(OCc5cccc(Cl)c5)cc4)[C@H]3C(=O)O)c(=O)c2c1` (racemic) [Example 103, (+/−)-(1RS,2RS,5SR)-2-{4-[(3-Chlorobenzyl)oxy]benzoyl}-5-[(6-methyl-4-oxo-1,2,3-benzotriazin-3(4H)-yl)methyl]cyclopentanecarboxylic acid], the IC50 is 0.1 nM in experiment [1], 35 nM in experiment [2], 320 nM in experiment [3] and 9700 nM in experiment [4].
For `O=C(O)[C@@H]1[C@@H](Cn2nnc3ccc(C(F)(F)F)cc3c2=O)CC[C@H]1C(=O)c1ccc(OCc2cccc(C(F)(F)F)c2)cc1` (single isomer, unassigned) [Example 19, (+)-(1RS,2SR,5RS)-2-{[4-Oxo-6-(trifluoromethyl)-1,2,3-benzotriazin-3(4H)-yl]methyl}-5-(4-{[3-(trifluoromethyl)benzyl]oxy}benzoyl)cyclopentanecarboxylic acid] the same measures were 0.027 nM, 270 nM, 3000 nM and 37000 nM.
For `COc1cccc(COc2ccc(C(=O)[C@@H]3CC[C@H](Cn4nnc5ccc(C)cc5c4=O)[C@H]3C(=O)O)cc2)c1` (single isomer, unassigned) [Example 107, (+)-(1RS,2RS,5SR)-2-{4-[(3-Methoxybenzyl)oxy]benzoyl}-5-[(6-methyl-4-oxo-1,2,3-benzotriazin-3(4H)-yl)methyl]cyclopentanecarboxylic acid], the IC50 in experiment [1] was 0.035 nM; in experiment [2], 52 nM; in experiment [3] it was 290 nM; in experiment [4], 11000 nM.
On to `O=C(O)[C@H]1[C@H](Cn2nnc3ccccc3c2=O)CC[C@@H]1C(=O)c1ccc(OCc2ccc(Cl)c(Cl)c2)cc1` (racemic) [Example 3, (+/−)-(1RS,2RS,5SR)-2-{4-[(3,4-Dichlorobenzyl)oxy]benzoyl}-5-[(4-oxo-1,2,3-benzotriazin-3(4H)-yl)methyl]cyclopentanecarboxylic acid], for which the IC50 in experiment [1] came to 0.055 nM; in experiment [2], 430 nM; in experiment [3], 700 nM; in experiment [4] it was 16000 nM.
“(+)-(1RS,2RS,5SR)-2-{4-[Cyclohexyl)methyl)sulphanyl]benzoyl}-5-{[4-oxo-6-(trifluoromethyl)-1,2,3-benzotriazin-3(4H)-yl]methyl}cyclopentanecarboxylic acid [Example 86]”: the IC50 in experiment [1] amounted to 0.018 nM; in experiment [2] it was 160 nM; in experiment [3], 3900 nM; in experiment [4] it was 27000 nM.
For `O=C(O)[C@@H]1[C@@H](Cn2nnc3ccc(C(F)(F)F)cc3c2=O)CC[C@H]1C(=O)c1ccc(OCc2cccc(Cl)c2)cc1` (single isomer, unassigned) [Example 23, (+)-(1RS,2RS,5SR)-2-{4-[(3-Chlorobenzyl)oxy]benzoyl}-5-{[4-oxo-6-(trifluoromethyl)-1,2,3-benzotriazin-3(4H)-yl]methyl}cyclopentanecarboxylic acid], the IC50 was determined as 0.032 nM in experiment [1], 87 nM in experiment [2], 1200 nM in experiment [3] and 24000 nM in experiment [4].
The like results for `COC(=O)Nc1cccc(COc2ccc(C(=O)[C@@H]3CC[C@H](Cn4nnc5ccc(C(F)(F)F)cc5c4=O)[C@H]3C(=O)O)cc2)c1` (stereo in doubt) [Example 31, (+)-(1RS,2RS,5SR)-2-[4-({3-[(Methoxycarbonyl)amino]benzyl}oxy)benzoyl]-5-{[4-oxo-6-(trifluoromethyl)-1,2,3-benzotriazin-3(4H)-yl]methyl}cyclopentanecarboxylic acid] were, in that order, 0.012 nM, 41 nM, 400 nM and 5400 nM.

In general, IC50 refers to the point on the concentration scale where inhibition reaches its midpoint. Low values mean greater potency in that assay, high ones weaker potency in that assay.
